Test results as given in patent US7951815B2, “Substituted 1,4,8-triazaspiro [4,5]decan-2-one compounds” (Gruenenthal GmbH, priority 2004, dated 2011).
Like-named read-outs stand apart in the source and are kept apart here.

Assays:
[1] = system: batrachotoxin (BTX) binding site of the sodium channel; test: Affinity to the batrachotoxin (BTX) binding site of the sodium channel; conditions: rat cerebrocortex synaptosomes, test concentration not given
5-HT transporter = target: T1, 5-HT transporter (Rattus norvegicus, UniProt P31652); test: Inhibition of 5-HT uptake in rat brain synaptosomes; type: biochemical; conditions: rat, 1 μM; for inhibition at 1 µM: read-out: Uptake 5-HT, % inhibition
T1 construct: synaptosomes of rat brain areas are freshly isolated; from tissue; host or cells: rat brain synaptosomes (P2 fraction) from marrow and pons
T1 sequence (P31652 whole entry): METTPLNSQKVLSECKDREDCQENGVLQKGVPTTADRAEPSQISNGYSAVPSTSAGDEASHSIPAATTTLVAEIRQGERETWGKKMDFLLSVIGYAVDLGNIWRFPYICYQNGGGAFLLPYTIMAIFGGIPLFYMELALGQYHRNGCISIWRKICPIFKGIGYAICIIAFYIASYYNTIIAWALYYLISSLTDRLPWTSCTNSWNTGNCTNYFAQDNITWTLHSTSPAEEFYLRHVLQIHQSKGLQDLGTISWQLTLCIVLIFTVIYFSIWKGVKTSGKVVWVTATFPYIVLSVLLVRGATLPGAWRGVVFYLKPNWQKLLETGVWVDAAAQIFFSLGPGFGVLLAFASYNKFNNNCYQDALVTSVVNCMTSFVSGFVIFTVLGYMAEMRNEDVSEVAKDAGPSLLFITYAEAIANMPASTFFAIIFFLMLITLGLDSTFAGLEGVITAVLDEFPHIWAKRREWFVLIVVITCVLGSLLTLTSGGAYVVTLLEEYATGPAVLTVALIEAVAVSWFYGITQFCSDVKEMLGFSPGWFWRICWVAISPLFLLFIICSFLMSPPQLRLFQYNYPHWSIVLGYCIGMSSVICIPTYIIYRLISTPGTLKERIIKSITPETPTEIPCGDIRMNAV

Structure (SMILES)	BTX inhibition ([1]; Table II)	BTX inhibition ([1]; Table III)	inhibition at 1 µM (5-HT transporter; Table III) [%]	other results
COc1ccc(CN2C(=O)[C@H](Cc3ccccc3)NC23CCN(C(=O)c2ccc(Cl)cc2)CC3)cc1.Cl (racemic) [Example 27, 3-(S,R)-benzyl-8-(4-chloro-benzoyl)-1-(4-methoxy-benzyl)-1,4,8-triazaspiro[4,5]decan-2-one hydrochloride]	79			Uptake 5-HT, rat, 1 μM, % inhibition (5-HT transporter; Table II): 78%
CCC(CC)C(=O)N1CCC2(CC1)N[C@@H](Cc1ccccc1)C(=O)N2Cc1ccc(OC)cc1.Cl (racemic) [Example 30, 3-(S,R)-benzyl-8-(2-ethylbutyryl)-1-(4-methoxybenzyl)-1,4,8-triazaspiro[4,5]decan-2-one hydrochloride]	35			Uptake 5-HT, rat, 1 μM, % inhibition (5-HT transporter; Table II): 42%
Cl.O=C1[C@H](Cc2ccccc2)NC2(CCNCC2)N1Cc1ccccc1 [Example 38, 1,3-(S)-Dibenzyl-1,4,8-triazaspiro[4,5]decan-2-one hydrochloride]	87			inhibition at 1 µM (5-HT transporter; Table II): 94%
Cl.O=C(c1cccc(F)c1F)N1CCC2(CC1)N[C@@H](Cc1ccccc1)C(=O)N2Cc1ccccc1 [Example 54, 1,3-(S)-dibenzyl-8-(2,3-difluorobenzoyl)-1,4,8-triazaspiro[4,5]decan-2-one hydrochloride]	37			inhibition at 1 µM (5-HT transporter; Table II): 81%
Cl.O=C(CCc1ccccc1)N1CCC2(CC1)N[C@@H](Cc1ccccc1)C(=O)N2Cc1ccccc1 [Example 58, 1,3-(S)-dibenzyl-8-(3-phenylpropionyl)-1,4,8-triazaspiro[4,5]decan-2-one hydrochloride]	46			inhibition at 1 µM (5-HT transporter; Table II): 46%
Cl.O=C(c1ccc2ccccc2c1)N1CCC2(CC1)N[C@@H](Cc1ccccc1)C(=O)N2Cc1ccccc1 [Example 59, 1,3-(S)-dibenzyl-8-(naphthalin-2-carbonyl)-1,4,8-triazaspiro[4,5]decan-2-one hydrochloride]	49			inhibition at 1 µM (5-HT transporter; Table II): 53%
Cl.O=C(c1ccco1)N1CCC2(CC1)N[C@@H](Cc1ccccc1)C(=O)N2Cc1ccccc1 [Example 60, 1,3-(S)-dibenzyl-8-(furan-2-carbonyl)-1,4,8-triazaspiro[4,5]decan-2-one hydrochloride]	39			inhibition at 1 µM (5-HT transporter; Table II): 80%
Cl.O=C(c1ccc(F)cc1)N1CCC2(CC1)N[C@@H](Cc1ccccc1)C(=O)N2Cc1ccccc1 [Example 62, 1,3-(S)-dibenzyl-8-(4-fluorobenzoyl)-1,4,8-triazaspiro[4,5]decan-2-one hydrochloride]	48			inhibition at 1 µM (5-HT transporter; Table II): 87%
CC(C)CC1NC2(CCN(C(=O)c3ccc(-c4ccccc4)cc3)CC2)N(Cc2ccc(F)cc2)C1=O (stereo not drawn) [Example 101, 8-(Biphenyl-4-carbonyl)-1-(4-fluorobenzyl)-3-isobutyl-1,4,8-triazaspiro[4,5]decan-2-one]		78	33	
O=C(c1ccc(Br)cc1)N1CCC2(CC1)NC(Cc1ccccc1)C(=O)N2Cc1ccccc1 (stereo not drawn) [Example 105, 1,3-Dibenzyl-8-(4-bromobenzoyl)-1,4,8-triazaspiro[4,5]decan-2-one]		66	68	
CCCCCC(=O)N1CCC2(CC1)NC(C(C)C)C(=O)N2CCCC (stereo not drawn) [Example 129, 1-Butyl-8-hexanoyl-3-isopropyl-1,4,8-triazaspiro[4,5]decan-2-one]		30	47	
CCSc1ncccc1C(=O)N1CCC2(CC1)NC(Cc1ccccc1)C(=O)N2Cc1ccccc1 (stereo not drawn) [Example 145, 1,3-Dibenzyl-8-(2-ethylsulfanylpyridin-3-carbonyl)-1,4,8-triazaspiro[4,5]decan-2-one]		64	89	
Cc1onc(-c2c(F)cccc2Cl)c1C(=O)N1CCC2(CC1)NC(=O)C(C(C)C)N2 (stereo not drawn) [Example 149, 8-[3-(2-Chloro-6-fluorophenyl)-5-methylisoxazole-4-carbonyl]-3-isopropyl-1,4,8-triazaspiro[4,5]decan-2-one]		33	33	
CCCCN1C(=O)C(CCSC)NC12CCN(C(=O)C1COc3ccc(Cl)cc3C1)CC2 (stereo not drawn) [Example 150, 1-Butyl-8-(6-Chloro-2H-chroman-3-carbonyl)-3-(2-methylsulfanylethyl)-1,4,8-triazaspiro[4,5]decan-2-one]		56		Uptake 5-HT, rat, 1 μM, % inhibition (5-HT transporter; Table III): 72%
Cc1nc(C(F)(F)F)ccc1C(=O)N1CCC2(CC1)NC(C(C)C)C(=O)N2CCOc1ccccc1 (stereo not drawn) [Example 167, 3-Isopropyl-8-(2-methyl-6-trifluoromethylpyridin-3-carbonyl)-1-(2-phenoxyethyl)-1,4,8-triazaspiro[4,5]decan-2-one]		38	52	
Cc1nn(-c2ccccc2)nc1C(=O)N1CCC2(CC1)NC(Cc1ccccc1)C(=O)N2C (stereo not drawn) [Example 168, 3-Benzyl-1-methyl-8-(5-methyl-2-phenyl-2H-[1,2,3]triazole-4-carbonyl)-1,4,8-triazaspiro[4,5]decan-2-one]		44	46	
O=C(c1sccc1Cl)N1CCC2(CC1)NC(Cc1ccccc1)C(=O)N2Cc1ccccc1 (stereo not drawn) [Example 172, 1,3-Dibenzyl-8-(3-chlorothiophene-2-carbonyl)-1,4,8-triazaspiro[4,5]decan-2-one]		49	76	
CCCCN1C(=O)C(Cc2ccccc2)NC12CCN(C(=O)c1cc(F)ccc1C(F)(F)F)CC2 (stereo not drawn) [Example 175, 3-Benzyl-1-butyl-8-(5-fluoro-2-trifluoromethylbenzoyl)-1,4,8-triazaspiro[4,5]decan-2-one]		38	69	
COc1ccc(CC(=O)N2CCC3(CC2)NC(Cc2ccccc2)C(=O)N3C)cc1 (stereo not drawn) [Example 176, 3-Benzyl-8-[2-(4-methoxyphenyl)acetyl]-1-methyl-1,4,8-triazaspiro[4,5]decan-2-one]		30	37	
Cc1nnsc1C(=O)N1CCC2(CC1)NC(Cc1ccccc1)C(=O)N2Cc1ccccc1 (stereo not drawn) [Example 177, 1,3-Dibenzyl-8-(4-methyl[1,2,3]thiadiazole-5-carbonyl)-1,4,8-triazaspiro[4,5]decan-2-one]		30	79	
CCCCN1C(=O)C(Cc2ccccc2)NC12CCN(C(=O)C1CCCCC1)CC2 (stereo not drawn) [Example 180, 3-Benzyl-1-butyl-8-cyclohexanecarbonyl-1,4,8-triazaspiro[4,5]decan-2-one]		42	63	
CCCCN1C(=O)C(Cc2ccccc2)NC12CCN(C(=O)CCC1CCCC1)CC2 (stereo not drawn) [Example 188, 3-Benzyl-1-butyl-8-(3-cyclopentylpropionyl)-1,4,8-triazaspiro[4,5]decan-2-one]		69	70	
COc1ccc(OC)c(CC(=O)N2CCC3(CC2)NC(CCSC)C(=O)N3Cc2ccccc2F)c1 (stereo not drawn) [Example 195, 8-[2-(2,5-Dimethoxyphenyl)acetyl]-1-(2-fluorobenzyl)-3-(2-methylsulfanylethyl)-1,4,8-triazaspiro[4,5]decan-2-one]		34	50	
CSCCC1NC2(CCN(C(=O)c3cccc(OC(F)(F)F)c3)CC2)N(Cc2cccc(C#N)c2)C1=O (stereo not drawn) [Example 200, 3-[3-(2-Methylsulfanylethyl)-2-oxo-8-(3-trifluoromethoxybenzoyl)-1,4,8-triazaspiro[4,5]dec-1-ylmethyl]benzonitrile]		44	45	
